test system: T1, myrosinase from Lepidium sativum seeds; assay: glucose release, glucose oxidase-peroxidase coupled assay, Michaelis-Menten fit; assay type: biochemical; conditions: pH 6.0, 37 °C, 100 μM L-ascorbic acid; read-out: KM (×10^-3 mol/L)
T1 construct: gene beta-thioglucoside glucohydrolase
Description: glucose release, glucose oxidase-peroxidase coupled assay, Michaelis-Menten fit on myrosinase from Lepidium sativum seeds

| Structure (SMILES) | Km |
| --- | --- |
| C=CC/C(=N/OS(=O)(=O)O)S[C@@H]1O[C@H](CO)[C@@H](O)[C@H](O)[C@H]1O [Sinigrin] | 574 ± 237 µM |
| C[S+]([O-])CCCC/C(=N/OS(=O)(=O)O)S[C@@H]1O[C@H](CO)[C@@H](O)[C@H](O)[C@H]1O (stereo partly drawn) [Glucoraphanin] | 1130 ± 256 µM |
| O=S(=O)(O)O/N=C(/Cc1ccc(O)cc1)S[C@@H]1O[C@H](CO)[C@@H](O)[C@H](O)[C@H]1O [Sinalbin] | 632 ± 235 µM |
